Measured values published in ChEMBL document CHEMBL1201862, “PubChem BioAssay data set” (2004).
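All cell lines were grown in 96-well plates and treated with compound for 48 hours. GI50 marks 50% less growth.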 Activity calls are given as the source filed them. Rule as the data show it: active = GI50 up to about 1.1 µM and inactive = higher.

Experiments:
Assay in all cases: NCI-60 cell line screen, 48 h
OVCAR-5 = test system: OVCAR-5
HCT-15 = test system: HCT-15
RXF 393 = test system: RXF 393
A498 = test system: A498
M14 = test system: M14
HOP-92 = test system: HOP-92
MOLT-4 = test system: MOLT-4
SF-295 = test system: SF-295
IGROV-1 = test system: IGROV-1
CAKI-1 = test system: CAKI-1
PC-3 = test system: PC-3
BT-549 = test system: BT-549
NCI-H460 = test system: NCI-H460
786-0 = test system: 786-0
T47D = test system: T47D
OVCAR-4 = test system: OVCAR-4
NCI-H23 = test system: NCI-H23
Hs-578T = test system: Hs-578T
MCF7 = test system: MCF7
SK-OV-3 = test system: SK-OV-3

SMILES	GI50 (OVCAR-5)	GI50 (HCT-15) [µM]	GI50 (RXF 393)	GI50 (A498)	GI50 (M14)	GI50 (HOP-92)	GI50 (MOLT-4)	GI50 (SF-295)	GI50 (IGROV-1)	GI50 (CAKI-1)	GI50 (PC-3)	GI50 (BT-549)	GI50 (NCI-H460)	GI50 (786-0)	GI50 (T47D)	GI50 (OVCAR-4)	GI50 (NCI-H23)	GI50 (Hs-578T)	GI50 (MCF7)	GI50 (SK-OV-3)
COC(=O)c1c(C)cccc1C1CN=NC12Cc1ccccc1C2=O (stereo not given)	> 100 µM (inactive)	78.3	> 100 µM (inactive)	98.6 µM (inactive)	20.1 µM (inactive)	> 57.7 µM (inactive)	36.2 µM (inactive)	62.2 µM (inactive)	> 91.2 µM (inactive)	98.6 µM (inactive)	78.5 µM (inactive)	54.5 µM (inactive)	> 75.9 µM (inactive)	> 100 µM (inactive)	38.1 µM (inactive)	> 92.3 µM (inactive)	60.4 µM (inactive)	96.2 µM (inactive)	2.46 µM (inactive)	> 100 µM (inactive)
O=C1CSC(c2ccccc2O)N1c1nc2cc3sc(N4C(=O)CSC4c4ccccc4O)nc3cc2s1 (stereo not given)	> 100 µM (inactive)	7.05	> 100 µM (inactive)	> 42.9 µM (inactive)	> 69.5 µM (inactive)	> 42.5 µM (inactive)	4.06 µM (inactive)	> 100 µM (inactive)	18.9 µM (inactive)	37.4 µM (inactive)	45.7 µM (inactive)	11.9 µM (inactive)	2.3 µM (inactive)	> 100 µM (inactive)	47.8 µM (inactive)	44.1 µM (inactive)	9.57 µM (inactive)	> 58.9 µM (inactive)	11.5 µM (inactive)	> 100 µM (inactive)
CN1CCN([C@H]2C[C@H]3[C@@H]4CC=C5C[C@@H](N6CCCC6)CC[C@]5(C)[C@H]4CC[C@]3(C)[C@H]2O)CC1	50.2 µM (inactive)	38.4	10.7 µM (inactive)	46.1 µM (inactive)	15.6 µM (inactive)	84.9 µM (inactive)	23.7 µM (inactive)	48.4 µM (inactive)	67.8 µM (inactive)	> 10 µM (inactive)	47.9 µM (inactive)	95.5 µM (inactive)	71.8 µM (inactive)	38.4 µM (inactive)	> 100 µM (inactive)	> 100 µM (inactive)	> 100 µM (inactive)	> 100 µM (inactive)	> 100 µM (inactive)	> 100 µM (inactive)
CCn1c2c(n(CC)c1=S)-c1c(n(CC)c(=S)n1CC)SSSS2	17.3 µM (inactive)	4.49	1.36 µM (inactive)	37.5 µM (inactive)	6.35 µM (inactive)	3.33 µM (inactive)	2.31 µM (inactive)	40.7 µM (inactive)	17.8 µM (inactive)	17.9 µM (inactive)	> 10 µM (inactive)	15.4 µM (inactive)	53.7 µM (inactive)	16.7 µM (inactive)	1.63 µM (inactive)	9.53 µM (inactive)	8.75 µM (inactive)	0.308 µM (active)	16 µM (inactive)	> 67.3 µM (inactive)
Cc1ccccc1NC(=O)O/N=C(\Cl)C(C)C	20.9 µM (inactive)	2.09	12.6 µM (inactive)	17.9 µM (inactive)	3.22 µM (inactive)	2.28 µM (inactive)	2.74 µM (inactive)	18.9 µM (inactive)	9.42 µM (inactive)	1.77 µM (inactive)	17.1 µM (inactive)	5.32 µM (inactive)	17.8 µM (inactive)	1.81 µM (inactive)	3.79 µM (inactive)	8.45 µM (inactive)	16.7 µM (inactive)	22.3 µM (inactive)	7.98 µM (inactive)	18.7 µM (inactive)
CC(C)N(C(C)C)S(=O)(=O)C[C@]12CC[C@H](CC13OCC(CS(=O)(=O)c1ccccc1)O3)C2(C)C (stereo not given in full)	> 76.4 µM (inactive)	47	49 µM (inactive)	56.6 µM (inactive)	47 µM (inactive)	> 24.3 µM (inactive)	6.98 µM (inactive)	28.4 µM (inactive)	> 28.7 µM (inactive)	81.3 µM (inactive)	35.3 µM (inactive)	> 85.3 µM (inactive)	39.2 µM (inactive)	45.9 µM (inactive)	27.1 µM (inactive)	40.8 µM (inactive)	47.3 µM (inactive)	94.4 µM (inactive)	36 µM (inactive)	45.5 µM (inactive)
